In US11311609B2, “Regulating chimeric antigen receptors” (DANA-FARBER CANCER INSTITUTE, INC., priority 2017, dated 2022):

What was measured:
SMART-CAR = SMART-CAR expression in Jurkat T-cells by flow cytometry with HA-antibody; type: cell-based, human; conditions: 4 hour pretreatment 250 nM, wash, retreatment with 250 nM dFKBP7; 1:1 co-culture
From the text: FIG. 27 is a histogram plot illustrating the ability to track SMART-CAR expression in Jurkat cells. SMART-CAR expressing Jurkat cells were stained with a HA-antibody and subsequently labelled with a secondary Alexa647 fluorescent antibody. Stained cells were subject to flow cytometry with excitation with a 647 nm laser and HA expression quantified via Alexa647 fluorescent signal (Example 24). The observed shift in signal illustrates the ability to track SMART-CAR expression in Jurkat T cells.
FIG. 31 are line plots tracking CD19 positive tumor cells and SMART-CAR expression levels as described in the experimental setup in FIG. 20 and described in Example 26. After the 4 hour pretreatment with 250 nM of dFKBP7, SMART-CAR expressing Jurkats were mixed in a 1:1 ratio with CD19 positive tumor cells (Daudi: top and Raji: bottom) in the presence (green line) or absence (blue line) of 250 nM of dFKBP7. […]
FIG. 27 illustrates the use of flow cytometry to monitor SMART-CAR protein expression in Jurkat T-cells. […] This allows for quantitative measurements of SMART-CAR protein expression levels.
SMART-CAR expressing Jurkat cells were pretreated with dFKBP7 at 250 nM for 4 hours to allow for maximal degradation of SMART-CAR. […] The two experimental arms were then mixed at a 1:1 ratio with CD19 positive tumor cells and CD19-positive tumor cells monitored by flow cytometry. […]

FKBP* fused to Nluc = experiment: Nluc/Fluc luciferase signal ratio assay of FKBP* degradation in 293FT cells; type: cell-based; conditions: wild type or CRBN-/- 293FT cells; indicated concentrations, 4 hours
Protocol: FIG. 7A and FIG. 7B are graphs measuring the activity of a panel of dFKBP heterobifunctional compounds in cells expressing FKBP* fused to Nluc. Degradation of FKBP* is measured as a signal ratio (Nluc/Fluc) between NANOluc and firefly luciferase from the same multicistronic transcript in wild type (FIG. 7A) or CRBN −/− (FIG. 7B) 293FT cells treated with indicated concentrations of dFKBPs for 4 hours. A decrease in the signal ratio indicates FKBP* (Nluc) degradation. Additional experimental details are provided in Example 4.
In an effort to identify potent and selective dFKPB heterobifunctional compounds, high throughput measurements of targeted FKBP* degradation were measured by surrogate levels of luciferase. Here, FKBP* is exogenously expressed as a multicistronic transcript with two types of luciferase: nano luciferase (NLuc) and firefly luciferase (FLuc) that allow for cell normalized quantification of FKBP* protein levels. Degradation of FKBP* is measured as a signal ratio (Nluc/Fluc) in wild type (FIG. 7A) or CRBN −/− (FIG. 7B) 293FT cells treated with indicated concentrations of dFKBPs for 4 hours.

FKBP*-KRASG12V = experiment: Immunoblot of FKBP*-KRASG12V degradation in NIH3T3 cells; type: cell-based; conditions: NIH3T3 cells; 500 nM, indicated time
Protocol: FIG. 19 is an immunoblot of NIH3T3 cells expressing KRASG12V allele fused to FKBP* in the N-terminus or C-terminus. Cells were treated with 500 nM dFKBP7 for the indicated time. Cells were harvested and immunoblotted to measure degradation of FKBP*-KRASG12V and downstream surrogates of KRAS signaling (e.g. pMEK and pAKT).
(§1) Cells were harvested and immunoblotted to measure degradation of FKBP*-KRASG12V and downstream surrogates of KRAS signaling (e.g. pMEK and pAKT).
as §1, §1
Cells were treated with 500 nM dFKBP7 for the indicated time. Cells were harvested and immunoblotted to measure degradation of FKBP*-KRAS and downstream surrogates of KRAS signaling (e.g. pMEK and pAKT).
(§2) Cells were harvested and immunoblotted to measure degradation of FKBP*-KRAS and downstream surrogates of KRAS signaling (e.g. pMEK and pAKT).
as §2
To evaluate the kinetic control of targeted degradation of dTAG-KRAS, dFKBP13 was administered by increased duration. […]

## CC[C@H](C(=O)N1CCCC[C@H]1C(=O)O[C@H](CCc1ccc(OC)c(OC)c1)c1cccc(OCC(=O)NCCCOCCOCCOCCCNC(=O)COc2cccc3c2C(=O)N(C2CCC(=O)NC2=O)C3=O)c1)c1cc(OC)c(OC)c(OC)c1 (stereo partly drawn) [dFKBP7]
SMART-CAR
  SMART-CAR expression: minimal
FKBP* fused to Nluc
  FKBP* (Nluc) degradation, signal ratio Nluc/Fluc: effectively degrade FKBP* in a cereblon dependent manner
FKBP*-KRASG12V
  Degradation of N-terminal dTAG-KRAS: potent degradation
